Test results from ChEMBL document CHEMBL1201862, “PubChem BioAssay data set” (2004).
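A five-concentration, 48-hour dose response in 96-well plates underlies each endpoint, interpolated linearly between surrounding concentrations. The concentration for 50% growth inhibition is given as GI50.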 Calls of active or inactive are those of the source. Rule as the data show it: active = GI50 up to about 1.1 µM and inactive = higher.

Key:
Assay in all cases: inhibition of tumour cell growth, NCI panel, 48 h
OVCAR-3 = tested on: OVCAR-3
EKVX = tested on: EKVX
HT-29 = tested on: HT-29
SK-MEL-5 = tested on: SK-MEL-5
RPMI-8226 = tested on: RPMI-8226
NCI-H522 = tested on: NCI-H522
K562 = tested on: K562
HOP-92 = tested on: HOP-92
SF-268 = tested on: SF-268
Hs-578T = tested on: Hs-578T
LOX IMVI = tested on: LOX IMVI
NCI-H226 = tested on: NCI-H226
SF-295 = tested on: SF-295
M19-MEL = tested on: M19-MEL
CCRF-CEM = tested on: CCRF-CEM
SN12C = tested on: SN12C
XF498 = tested on: XF498
COLO 205 = tested on: COLO 205
ACHN = tested on: ACHN
SK-MEL-28 = tested on: SK-MEL-28
U-251 = tested on: U-251
HCT-15 = tested on: HCT-15
786-0 = tested on: 786-0
IGROV-1 = tested on: IGROV-1
MCF7 = tested on: MCF7
SNB-78 = tested on: SNB-78
SNB-19 = tested on: SNB-19
DMS-114 = tested on: DMS-114
SR = tested on: SR
PC-3 = tested on: PC-3
TK-10 = tested on: TK-10
HOP-18 = tested on: HOP-18
HCC 2998 = tested on: HCC 2998
SK-MEL-2 = tested on: SK-MEL-2
OVCAR-4 = tested on: OVCAR-4
A498 = tested on: A498
OVCAR-5 = tested on: OVCAR-5
M14 = tested on: M14
RXF 393 = tested on: RXF 393
Malme-3M = tested on: Malme-3M
OVCAR-8 = tested on: OVCAR-8
DLD-1 = tested on: DLD-1
DU-145 = tested on: DU-145
NCI-H23 = tested on: NCI-H23
MDA-MB-435 = tested on: MDA-MB-435
UO-31 = tested on: UO-31
CAKI-1 = tested on: CAKI-1
HL-60 = tested on: HL-60
SNB-75 = tested on: SNB-75
BT-549 = tested on: BT-549
MDA-MB-231 = tested on: MDA-MB-231
SW-620 = tested on: SW-620
UACC-62 = tested on: UACC-62
SK-OV-3 = tested on: SK-OV-3
T47D = tested on: T47D
KM12 = tested on: KM12
LXFL 529 = tested on: LXFL 529
UACC-257 = tested on: UACC-257
MDA-N = tested on: MDA-N
NCI-H460 = tested on: NCI-H460
NCI/ADR-RES = tested on: NCI/ADR-RES
SF-539 = tested on: SF-539
KM-20L2 = tested on: KM-20L2
MOLT-4 = tested on: MOLT-4
HCT-116 = tested on: HCT-116
DMS-273 = tested on: DMS-273
HOP-62 = tested on: HOP-62
A549 = tested on: A549

CCOC(=O)NC1=C(N2CC2)C(=O)C(NC(=O)OCC)=C(N2CC2)C1=O [DIAZIQUONE]
GI50 (OVCAR-3): 4.75 µM (inactive) | GI50 (EKVX): 6.37 µM (inactive) | GI50 (HT-29): 7.73 µM (inactive) | GI50 (SK-MEL-5): 3.72 µM (inactive) | GI50 (RPMI-8226): 3.99 µM (inactive) | GI50 (NCI-H522): 3.14 µM (inactive) | GI50 (K562): 5.43 µM (inactive) | GI50 (HOP-92): 5.51 µM (inactive) | GI50 (SF-268): 2.81 µM (inactive) | GI50 (Hs-578T): 13.2 µM (inactive) | GI50 (LOX IMVI): 2.31 µM (inactive) | GI50 (NCI-H226): 4.23 µM (inactive) | GI50 (SF-295): 1.12 µM (active) | GI50 (M19-MEL): 5.38 µM (inactive) | GI50 (CCRF-CEM): 1.37 µM (inactive) | GI50 (SN12C): 1.36 µM (inactive) | GI50 (XF498): 3.67 µM (inactive) | GI50 (COLO 205): 7.69 µM (inactive) | GI50 (ACHN): 0.82 µM (active) | GI50 (SK-MEL-28): 13 µM (inactive) | GI50 (U-251): 2.51 µM (inactive) | GI50 (HCT-15): 7.69 µM | GI50 (786-0): 1.56 µM (inactive) | GI50 (IGROV-1): 5.33 µM (inactive) | GI50 (MCF7): 1.98 µM (inactive) | GI50 (SNB-78): 7.36 µM (inactive) | GI50 (SNB-19): 4.11 µM (inactive) | GI50 (DMS-114): 2.01 µM (inactive) | GI50 (SR): 0.339 µM (active) | GI50 (PC-3): 4.36 µM (inactive) | GI50 (TK-10): 31.6 µM (inactive) | GI50 (HOP-18): 6.35 µM (inactive) | GI50 (HCC 2998): 6.85 µM (inactive) | GI50 (SK-MEL-2): 5.96 µM (inactive) | GI50 (OVCAR-4): 4.9 µM (inactive) | GI50 (A498): 3.56 µM (inactive) | GI50 (OVCAR-5): 7.85 µM (inactive) | GI50 (M14): 2.62 µM (inactive) | GI50 (RXF 393): 4.68 µM (inactive) | GI50 (Malme-3M): 6.49 µM (inactive) | GI50 (OVCAR-8): 3.73 µM (inactive) | GI50 (DLD-1): 7.38 µM (inactive) | GI50 (DU-145): 1.9 µM (inactive) | GI50 (NCI-H23): 1.85 µM (inactive) | GI50 (MDA-MB-435): 3.58 µM (inactive) | GI50 (UO-31): 5.56 µM (inactive) | GI50 (CAKI-1): 1.08 µM (active) | GI50 (HL-60): 0.357 µM (active) | GI50 (SNB-75): 4.73 µM (inactive) | GI50 (BT-549): 11.4 µM (inactive) | GI50 (MDA-MB-231): 8.13 µM (inactive) | GI50 (SW-620): 4.97 µM (inactive) | GI50 (UACC-62): 0.489 µM (active) | GI50 (SK-OV-3): 4.52 µM (inactive) | GI50 (T47D): 6.21 µM (inactive) | GI50 (KM12): 8.81 µM (inactive) | GI50 (LXFL 529): 4.92 µM (inactive) | GI50 (UACC-257): 4.65 µM (inactive) | GI50 (MDA-N): 3.4 µM (inactive) | GI50 (NCI-H460): 0.188 µM (active) | GI50 (NCI/ADR-RES): 3.48 µM (inactive) | GI50 (SF-539): 1.75 µM (inactive) | GI50 (KM-20L2): 6.93 µM (inactive) | GI50 (MOLT-4): 1.38 µM (inactive) | GI50 (HCT-116): 3.53 µM (inactive) | GI50 (DMS-273): 0.596 µM (active) | GI50 (HOP-62): 0.741 µM (active)

NC(=O)c1c[se]c(C2OC(COP(=O)(O)CP(=O)(O)OCC3OC(n4cnc5c(N)ncnc54)C(O)C3O)C(O)C2O)n1 (centres undefined)
GI50 (OVCAR-3): > 100 µM (inactive) | GI50 (EKVX): > 100 µM (inactive) | GI50 (HT-29): 53.2 µM (inactive) | GI50 (SK-MEL-5): > 100 µM (inactive) | GI50 (NCI-H522): > 100 µM (inactive) | GI50 (K562): 15.9 µM (inactive) | GI50 (HOP-92): > 100 µM (inactive) | GI50 (SF-268): > 100 µM (inactive) | GI50 (A549): 51.3 µM (inactive) | GI50 (NCI-H226): > 100 µM (inactive) | GI50 (SF-295): 53.3 µM (inactive) | GI50 (M19-MEL): > 100 µM (inactive) | GI50 (CCRF-CEM): 29.1 µM (inactive) | GI50 (SN12C): > 100 µM (inactive) | GI50 (XF498): > 100 µM (inactive) | GI50 (COLO 205): 93.1 µM (inactive) | GI50 (ACHN): 64.3 µM (inactive) | GI50 (SK-MEL-28): > 100 µM (inactive) | GI50 (U-251): 61 µM (inactive) | GI50 (786-0): 63.1 µM (inactive) | GI50 (IGROV-1): 84.3 µM (inactive) | GI50 (SNB-78): > 100 µM (inactive) | GI50 (SNB-19): > 100 µM (inactive) | GI50 (DMS-114): 97.5 µM (inactive) | GI50 (SR): 35 µM (inactive) | GI50 (HOP-18): > 100 µM (inactive) | GI50 (SK-MEL-2): > 100 µM (inactive) | GI50 (OVCAR-4): > 100 µM (inactive) | GI50 (A498): > 100 µM (inactive) | GI50 (OVCAR-5): > 100 µM (inactive) | GI50 (M14): 72.8 µM (inactive) | GI50 (RXF 393): > 100 µM (inactive) | GI50 (Malme-3M): > 100 µM (inactive) | GI50 (OVCAR-8): 87.9 µM (inactive) | GI50 (DLD-1): 55.5 µM (inactive) | GI50 (NCI-H23): > 100 µM (inactive) | GI50 (UO-31): > 100 µM (inactive) | GI50 (CAKI-1): 43.3 µM (inactive) | GI50 (HL-60): 28.2 µM (inactive) | GI50 (SNB-75): > 100 µM (inactive) | GI50 (SW-620): 30.9 µM (inactive) | GI50 (SK-OV-3): > 100 µM (inactive) | GI50 (KM12): 66.5 µM (inactive) | GI50 (LXFL 529): 51.4 µM (inactive) | GI50 (UACC-257): > 100 µM (inactive) | GI50 (NCI-H460): 44.8 µM (inactive) | GI50 (SF-539): > 100 µM (inactive) | GI50 (KM-20L2): 74.5 µM (inactive) | GI50 (MOLT-4): 35.3 µM (inactive) | GI50 (HCT-116): 52.1 µM (inactive) | GI50 (DMS-273): 38.6 µM (inactive) | GI50 (HOP-62): > 100 µM (inactive)
